In brackets after ≈: the same amount, converted by molar mass. Read-outs that look alike come from different tables or passages of the source.
Experiments:
E. coli Juhl = experiment: In vivo antibacterial activity, E. coli Juhl infection; details: mice, im just after bacterial challenge; for ED50: Escherichia coli, read-out: PD50
Method: (§1) In vivo antibacterial activity was determined against three bacterial infections (S. aureus Smith, E. coli Juhl and P. aeruginosa A9843A) by intramuscular administration to mice just after the bacterial challenge. PD50 values are summarized in Table 3 in comparsion with the MIC values against the corresponding organisms.

[1] = system: Gn-II: M.morganii (1), Ent. cloacae (2) and Ser. marcescens (2); experiment: MIC, two-fold serial agar dilution, Gn-II; assay type: cell-based; details: for MIC: read-out: Geometric mean of MIC
Method: (§2) Minimum inhibitory concentrations (MICs) of the present series of cephalosporins were determined against 32 strains of test organisms by two-fold serial agar dilution method in Mueller-Hinton agar. Geometric means of MICs were calculated against six groups of the test organisms which are classified as follows and summarized in Table 1.
Gn-II M.morganii (1), Ent. cloacae (2) and Ser.

[2] = system: Gp-Ia: Penicillin(PC)-sensitive S. aureus (5 strains); experiment: MIC, two-fold serial agar dilution, Gp-Ia; assay type: cell-based; details: for MIC: Staphylococcus aureus, read-out: Geometric mean of MIC
Method: as §2
Gp-Ia Penicillin(PC)-sensitive S. aureus (5 strains).

E. coli Juhl A15119 = experiment: MIC, agar dilution; assay type: cell-based; details: E. coli Juhl (Table 3)
Method: as §2, §1
(§3) Medium; MuellerHinton agar (pH = 7.2)
(§4) Incubation temperature: 32° C., 18 hr
(§5) Inoculum size; 10^6 cells/ml

S. aureus Smith [3] = experiment: MIC, agar dilution; assay type: cell-based; details: S. aureus Smith (Table 3)
Method: as §2, §1, §3, §4, §5

P. aeruginosa A9843A [4] = experiment: MIC, agar dilution; assay type: cell-based
Method: as §2, §1, §3, §4, §5

[5] = system: Gp-Ib: Penicillin(PC)-resistant S. aureus (5); experiment: MIC, two-fold serial agar dilution, Gp-Ib; assay type: cell-based; details: 5 strains; for MIC: Staphylococcus aureus, read-out: Geometric mean of MIC
Method: as §2
Gp-Ib Penicillin(PC)-resistant S. aureus (5).

[6] = system: Gn-III: Ps. aeruginosa (7); experiment: MIC, two-fold serial agar dilution, Gn-III; assay type: cell-based; details: Gn-III, 7 strains; for MIC: Pseudomonas aeruginosa, read-out: Geometric mean of MIC
Method: as §2
Gn-III Ps. aeruginosa (7).

S. aureus Smith [7] = experiment: In vivo antibacterial activity, S. aureus Smith infection; details: mice, im just after bacterial challenge; for ED50: Staphylococcus aureus, read-out: PD50
Method: as §1

[8] = system: Gn-Ib: Cephalothin(CET)-resistant E. coli (3) and Kl. pneumoniae (2); experiment: MIC, two-fold serial agar dilution, Gn-Ib; assay type: cell-based; details: for MIC: Escherichia coli
Method: as §2
Gn-Ib Cephalothin(CET)-resistant E. coli (3) and Kl.

[9] = system: Gn-Ia: Cephalothin(CET)-sensitive E. coli (2), Kl. pneumoniae (1) and Pr. mirabilis (2); experiment: MIC, two-fold serial agar dilution, Gn-Ia; assay type: cell-based; details: 5 strains; for MIC: read-out: Geometric mean of MIC
Method: as §2
Gn-Ia Cephalothin(CET)-sensitive E. coli (2), Kl.
pneumoniae (1) and Pr. mirabilis (2).

P. aeruginosa A9843A [10] = experiment: In vivo antibacterial activity, P. aeruginosa A9843A infection; parameters: species or system mice; details: for ED50: Pseudomonas aeruginosa, A9843A, in Mus musculus, im, read-out: PD50
Method: as §1

[11] = Gn-II, 5 strains, Mueller-Hinton agar
[12] = Escherichia coli, JUHLA15119, 18 h, read-out: MIC
[13] = Staphylococcus aureus, 18 h, read-out: MIC
[14] = Pseudomonas aeruginosa, A9843A, 18 h
[15] = read-out: Geometric mean of MIC, Gn-Ib, 5 strains, Mueller-Hinton agar

Compound | ED50 (E. coli Juhl) [mg/kg] | MIC [1] [µg/mL] | MIC ([2]; Mueller-Hinton agar) [µg/mL] | MIC (E. coli Juhl A15119; [12]) [µg/mL] | MIC (S. aureus Smith [3]; [13]) [µg/mL] | MIC (P. aeruginosa A9843A [4]; [14]) [µg/mL] | MIC ([5]; Mueller-Hinton agar) [µg/mL] | MIC ([6]; Mueller-Hinton agar) [µg/mL] | ED50 (S. aureus Smith [7]) [mg/kg] | MIC [8, 15] [µg/mL] | MIC ([9]; Mueller-Hinton agar) [µg/mL] | ED50 (P. aeruginosa A9843A [10]) [mg/kg] | other results
CO/N=C(\C(=O)NC1C(=O)N2C(C(=O)O)=C(/C=C/Cn3ccc4cc(=O)c(O)cc-4c3)CS[C@H]12)c1csc(N)n1 (stereo partly drawn) [Iw, 7-[(Z)-2-(2-Aminothiazol-4-yl)-2-methoxyimino-acetamido]-3-[(E)-3-(2,6-dihydro-7-hydroxy-6-oxo-isoquino-lin-2-yl)-1-propen-1-yl]-3-cephem-4-carboxylic acid] | – | – | – | – | – | – | – | – | – | – | – | – | PD50 (E. coli Juhl): 0.19 mg/kg; Geometric mean of MIC [1, 11]: 0.13 µg/mL; Geometric mean of MIC ([2]; Mueller-Hinton agar): 0.8 µg/mL; MIC (E. coli Juhl A15119): 0.1 µg/mL (≈ 0.172 µM); MIC (S. aureus Smith [3]): 0.8 µg/mL (≈ 1.37 µM); MIC (P. aeruginosa A9843A [4]; P. aeruginosa 9843A (Table 3)): 12.5 µg/mL (≈ 21.5 µM); Geometric mean of MIC ([5]; Mueller-Hinton agar): 1.4 µg/mL; Geometric mean of MIC ([6]; Mueller-Hinton agar): 13.0 µg/mL; PD50 (S. aureus Smith [7]): 0.18 mg/kg; Geometric mean of MIC ([8]; Gn-Ib, 5 strains, Mueller-Hinton agar): 0.022 µg/mL; Geometric mean of MIC ([9]; Mueller-Hinton agar): 0.015 µg/mL; PD50 (P. aeruginosa A9843A [10]; mice, im just after bacterial challenge, P. aeruginosa 9843A): 0.39 mg/kg
CC(C)(O/N=C(\C(=O)NC1C(=O)N2C(C(=O)[O-])=C(/C=C\C[N+]3(C)Cc4cc(O)c(O)cc4C3)CS[C@H]12)c1csc(N)n1)C(=O)O (stereo partly drawn) [Compound Ib, 7-[(Z)-2-(2-aminothiazol-4-yl)-2-(1-carboxy-1-methylethoxy-imino)acetamido]-3-[(Z)-3-(5,6-dihydroxy-2-methyl-2-isoindolinio)-1-propen-1-yl]-3-cephem-4-carboxylate] | 0.1 | 0.91 (≈ 1.38 µM) | 25 (≈ 38 µM) | 0.8 (≈ 1.21 µM) | 25 (≈ 38 µM) | 1.6 (≈ 2.43 µM) | 50 (≈ 75.9 µM) | 1.4 (≈ 2.13 µM) | 3.8 | 0.26 (≈ 0.395 µM) | 0.46 (≈ 0.698 µM) | 2 | –
CO/N=C(\C(=O)NC1C(=O)N2C(C(=O)[O-])=C(/C=C/C[N+]3(C)Cc4cc(O)c(O)cc4C3)CS[C@H]12)c1csc(N)n1 (stereo partly drawn) [Compound Id, 7-[(Z)-2-(2-aminothiazol-4-yl)-2-methoxyiminoacetamido]-3-[(E)-3-(5,6-dihydroxy-2-methyl-2-isoindolinio)-1-propen-1-yl]-3-cephem-4-carboxylate] | 0.012 | 0.79 (≈ 1.35 µM) | 1.6 (≈ 2.73 µM) | 0.4 (≈ 0.682 µM) | 1.6 (≈ 2.73 µM) | 3.1 (≈ 5.28 µM) | 3.1 (≈ 5.28 µM) | 2.6 (≈ 4.43 µM) | 0.33 | 0.46 (≈ 0.784 µM) | 0.15 (≈ 0.256 µM) | 6.8 | –
CO/N=C(\C(=O)NC1C(=O)N2C(C(=O)[O-])=C(/C=C\C[N+]3(C)Cc4cc(O)c(O)cc4C3)CS[C@H]12)c1csc(N)n1 (stereo partly drawn) [Compound Ie, 7-[(Z)-2-(2-amino-thiazol-4-yl)-2-methoxyiminoacetamido]-3-[(Z)-3-(5,6-dihydroxy-2-methyl-2-isoindolinio)-1-propen-1-yl]-3-cephem-4-carboxylate] | 0.025 | – | 4.7 (≈ 8.01 µM) | 0.2 (≈ 0.341 µM) | 6.3 (≈ 10.7 µM) | 3.1 (≈ 5.28 µM) | 6.3 (≈ 10.7 µM) | 2.9 (≈ 4.94 µM) | 0.72 | 0.26 (≈ 0.443 µM) | 0.13 (≈ 0.222 µM) | 9.9 | MIC [1, 11]: 0.91 µg/mL (≈ 1.55 µM)
CC(C)(O/N=C(\C(=O)NC1C(=O)N2C(C(=O)[O-])=C(/C=C/C[N+]3(C)Cc4cc(O)c(O)cc4C3)CSC12)c1csc(N)n1)C(=O)O (stereo not drawn) [Compound Ia, 7-[(Z)-2-(2-Aminothiazol-4-yl)-2-(1-carboxy-1-methylethoxy-imino)acetamido]-3-[(E)-3-(5,6-dihydroxy-2-methyl-2-iso-indolinio)-1-propen-1-yl]-3-cephem-4-carboxylate] | 0.008 | 0.69 (≈ 1.05 µM) | 12.5 (≈ 19 µM) | 0.8 (≈ 1.21 µM) | 12.5 (≈ 19 µM) | 1.6 (≈ 2.43 µM) | 12.5 (≈ 19 µM) | 1.3 (≈ 1.97 µM) | 0.86 | 0.23 (≈ 0.349 µM) | 0.2 (≈ 0.304 µM) | 2 | Geometric mean of MIC ([1]; second run, Gn-II, 5 strains): 0.69 µg/mL; MIC ([2]; second run): 13 µg/mL (≈ 19.7 µM); MIC ([5]; second run): 13 µg/mL (≈ 19.7 µM); MIC ([6]; second run): 0.33 µg/mL (≈ 0.501 µM); MIC ([8]; read-out: Geometric mean of MIC, second run, Gn-Ib, 5 strains): 0.23 µg/mL (≈ 0.349 µM); MIC ([9]; second run): 0.23 µg/mL (≈ 0.349 µM)

Reference: patent US5126336A, “Antibiotic C-3 catechol-substituted cephalosporin compounds, compositions and method of use thereof” (Bristol-Myers Squibb Company, priority 1990, dated 1992)
